Assay results reported in US10149879B2 (priority 2014, dated 2018).

Experiments:
3T3-L1 cells [1] = experiment: Anti-oxidant activity in 3T3-L1 cells challenged with H2O2; assay type: cell-based; design: Anti-oxidant activity, cells challenged with H2O2: scale not given here; settings: for Anti-oxidant activity, cells challenged with H2O2: 3T3-L1; for protection against H2O2 induced cellular oxidative damage: 3T3-L1 cells
Text: Anti-Oxidant Activity in 3T3-L1 Cells Challenged with H2O2 Berberin and Palmatine
Anti-Oxidant Activity in 3T3-L1 Cells Challenged with H2O2 Berberin and Quercetin

βTC6 insulinoma cell [2] = experiment: Cell viability assay in βTC6 insulinoma cell line; assay type: cell-based; settings: for Cell viability: βTC6, control 100.00
Text: Cell Viability Assay in βTC6 Insulinoma Cell Lime Following—

[3] = system: nor-epinephrine, serotonin and dopamine in whole brain; settings: mice; acute administration 5 mg/kg ip; cited from earlier work
βTC6 insulinoma cell [4] = experiment: Anti-oxidant activity in βTC6 insulinoma cell challenged with H2O2; assay type: cell-based; design: Anti-oxidant activity, cells challenged with H2O2: unit not given here; settings: for Anti-oxidant activity, cells challenged with H2O2: βTC6
Text: Anti-Oxidant Activity in βTC6 Insulinoma Cell Challenged with H2O2 Berberin and Quercetin—
Anti-Oxidant Activity in βTC6 Insulinoma Cell Challenged with H2O2 Berberin and Palmatine—

3T3-L1 cells [5] = experiment: Cell viability assay in 3T3-L1 cells; settings: for Cell viability: 3T3-L1, control 100.00
L6-myotubes = experiment: Anti-diabetic activity (glucose consumption) in L6-myotubes; assay type: cell-based; design: Anti-diabetic activity (glucose consumption): unit not given here; settings: for Anti-diabetic activity (glucose consumption): L6-myotubes, control 1.00
Aldose reductase = biological target: T1, Aldose reductase (Rattus norvegicus, UniProt P07943); experiment: Aldose reductase activity; assay type: in vivo, rats; settings: H.G. animals; standard drug
T1 construct: from tissue; STZ-induced diabetic animals
Description: Before utilizing the test drug for human consumption the pre-clinical safety and efficacy profile of single plant candidate extract as well as in combined form was conducted following standard norms. […] The effect of test drug was assessed on glucose levels, insulin level, glycosylated hemoglobin, and pro-inflammatory cytokines, and the most important bio-marker neopterin including various neuro-psychological assessments. […] Aldose Reductase Activity and Glycation of Hemoglobin Following Test Formulation Treatment

For COc1ccc2cc3[n+](cc2c1OC)CCc1cc2c(cc1-3)OCO2 [Berberin], the “Anti-oxidant activity, cells challenged with H2O2” value (“Anti-oxidant activity … with H2O2” for short) (3T3-L1 cells [1]; Co-incubated, 10 pM, control 50.00) was 56.00 ± 3.35, the “Anti-oxidant activity … with H2O2” value (3T3-L1 cells [1]; Co-incubated, 10 pg/ml, control 49.00) was 53.00 ± 2.50 and the “Anti-oxidant activity … with H2O2” value (3T3-L1 cells [1]; Co-incubated, 100 pM, control 50.00) was 58.96 ± 1.20. The “Anti-oxidant activity … with H2O2” value (3T3-L1 cells [1]; Co-incubated, 100 pg/ml, control 49.00) was 57.80 ± 2.50, the “Anti-oxidant activity … with H2O2” value (3T3-L1 cells [1]; Co-incubated, 1 nM, control 50.00) was 61.80 ± 1.80 and the “Anti-oxidant activity … with H2O2” value (3T3-L1 cells [1]; Co-incubated, 1 ng/ml, control 49.00) was 65.15 ± 1.99. The “Anti-oxidant activity … with H2O2” value (3T3-L1 cells [1]; Co-incubated, 10 nM, control 50.00) was 63.00 ± 1.60, the “Anti-oxidant activity … with H2O2” value (3T3-L1 cells [1]; Co-incubated, 100 nM, control 50.00) was 63.38 ± 2.10 and the “Anti-oxidant activity … with H2O2” value (3T3-L1 cells [1]; Co-incubated, 100 ng/ml (first of two lines so printed, r7), control 49.00) was 70.80 ± 3.25. For the same compound, the “Anti-oxidant activity … with H2O2” value (3T3-L1 cells [1]; Co-incubated, 100 ng/ml (second line, r8), control 49.00) was 77.50 ± 2.95, the “Anti-oxidant activity … with H2O2” value (3T3-L1 cells [1]; Pre-incubated, 10 pM, control 50.00) was 52.01 ± 2.80 and the “Anti-oxidant activity … with H2O2” value (3T3-L1 cells [1]; Pre-incubated, 10 pg/ml, control 49.00) was 55.00 ± 2.00. For the same compound, the “Anti-oxidant activity … with H2O2” value (3T3-L1 cells [1]; Pre-incubated, 100 pM, control 50.00) was 55.76 ± 2.80, the “Anti-oxidant activity … with H2O2” value (3T3-L1 cells [1]; Pre-incubated, 100 pg/ml, control 49.00) was 58.00 ± 1.70 and the “Anti-oxidant activity … with H2O2” value (3T3-L1 cells [1]; Pre-incubated, 1 nM, control 50.00) was 59.95 ± 2.10. The “Anti-oxidant activity … with H2O2” value (3T3-L1 cells [1]; Pre-incubated, 1 ng/ml, control 49.00) was 64.00 ± 1.90, the “Anti-oxidant activity … with H2O2” value (3T3-L1 cells [1]; Pre-incubated, 10 nM, control 50.00) was 61.13 ± 1.05 and the “Anti-oxidant activity … with H2O2” value (3T3-L1 cells [1]; Pre-incubated, 100 nM, control 50.00) was 64.25 ± 2.30. For the same compound, the “Anti-oxidant activity … with H2O2” value (3T3-L1 cells [1]; Pre-incubated, 100 ng/ml (first of two lines so printed, r7), control 49.00) was 67.40 ± 3.70, the “Anti-oxidant activity … with H2O2” value (3T3-L1 cells [1]; Pre-incubated, 100 ng/ml (second line, r8), control 49.00) was 75.00 ± 4.15 and the “protection against H2O2 induced cellular oxidative damage” value (“protection” for short) (3T3-L1 cells [1]; comparison with positive standard) was “potent protection”. For the same compound, the “protection” value (3T3-L1 cells [1]; pM-nM doses) was “mild protection”, the Cell viability (βTC6 insulinoma cell [2]; 1 pM) was 97.95 ± 1.12 and the Cell viability (βTC6 insulinoma cell [2]; 10 pM) was 96.99 ± 2.20. For the same compound, the Cell viability (βTC6 insulinoma cell [2]; 100 pM) was 94.60 ± 2.45, the Cell viability (βTC6 insulinoma cell [2]; 1 nM) was 90.89 ± 1.42 and the Cell viability (βTC6 insulinoma cell [2]; 10 nM) was 88.65 ± 2.60. The Cell viability (βTC6 insulinoma cell [2]; 100 nM) was 86.30 ± 1.67, the Cell viability (βTC6 insulinoma cell [2]; 1 μM) was 73.75 ± 2.90 and the Cell viability (βTC6 insulinoma cell [2]; 10 μM) was 67.89 ± 1.65. The “toxicity to the cells” value (βTC6 insulinoma cell [2]; βTC6 insulinoma cells, 10 ng/ml) was “non-toxic”, the “increased level of dopamine in whole brain” value [3] was 31% and the “increased level of nor-epinephrine in whole brain” value [3] was 31%. The “increased level of serotonin in whole brain” value [3] was 47%, the “Anti-oxidant activity … with H2O2” value (βTC6 insulinoma cell [4]; Co-incubated, 1 pM, control 55.54) was 54.53 ± 1.67 and the “Anti-oxidant activity … with H2O2” value (βTC6 insulinoma cell [4]; Co-incubated, 1 pg/ml, control 55.64) was 59.70 ± 2.00. For the same compound, the “Anti-oxidant activity … with H2O2” value (βTC6 insulinoma cell [4]; Co-incubated, 10 pM, control 55.54) was 54.79 ± 2.95, the “Anti-oxidant activity … with H2O2” value (βTC6 insulinoma cell [4]; Co-incubated, 10 pg/ml, control 55.64) was 64.14 ± 2.04 and the “Anti-oxidant activity … with H2O2” value (βTC6 insulinoma cell [4]; Co-incubated, 100 pg/ml, control 55.64) was 67.40 ± 1.43. The “Anti-oxidant activity … with H2O2” value (βTC6 insulinoma cell [4]; Co-incubated, 0.1 nM, control 55.54) was 56.02 ± 2.82, the “Anti-oxidant activity … with H2O2” value (βTC6 insulinoma cell [4]; Co-incubated, 1 nM, control 55.54) was 59.80 ± 1.30 and the “Anti-oxidant activity … with H2O2” value (βTC6 insulinoma cell [4]; Co-incubated, 1 ng/ml, control 55.64) was 76.57 ± 1.50. For the same compound, the “Anti-oxidant activity … with H2O2” value (βTC6 insulinoma cell [4]; Co-incubated, 10 nM, control 55.54) was 60.75 ± 2.16, the “Anti-oxidant activity … with H2O2” value (βTC6 insulinoma cell [4]; Co-incubated, 10 ng/ml, control 55.64) was 85.90 ± 2.00 and the “Anti-oxidant activity … with H2O2” value (βTC6 insulinoma cell [4]; Pre-incubate, 1 pg/ml, control 55.64) was 61.60 ± 2.00. The “Anti-oxidant activity … with H2O2” value (βTC6 insulinoma cell [4]; Pre-incubate, 10 pg/ml, control 55.64) was 65.18 ± 1.98, the “Anti-oxidant activity … with H2O2” value (βTC6 insulinoma cell [4]; Pre-incubate, 100 pg/ml, control 55.64) was 67.05 ± 2.45 and the “Anti-oxidant activity … with H2O2” value (βTC6 insulinoma cell [4]; Pre-incubate, 1 ng/ml, control 55.64) was 74.40 ± 1.40. For the same compound, the “Anti-oxidant activity … with H2O2” value (βTC6 insulinoma cell [4]; Pre-incubate, 10 ng/ml, control 55.64) was 77.69 ± 2.10, the “Anti-oxidant activity … with H2O2” value (βTC6 insulinoma cell [4]; Pre-incubated, 1 pM, control 55.54) was 57.52 ± 0.80 and the “Anti-oxidant activity … with H2O2” value (βTC6 insulinoma cell [4]; Pre-incubated, 10 pM, control 55.54) was 58.90 ± 2.87. For the same compound, the “Anti-oxidant activity … with H2O2” value (βTC6 insulinoma cell [4]; Pre-incubated, 0.1 nM, control 55.54) was 60.12 ± 3.40, the “Anti-oxidant activity … with H2O2” value (βTC6 insulinoma cell [4]; Pre-incubated, 1 nM, control 55.54) was 61.70 ± 1.60 and the “Anti-oxidant activity … with H2O2” value (βTC6 insulinoma cell [4]; Pre-incubated, 10 nM, control 55.54) was 64.20 ± 1.65. The “anti-oxidant activity” value (βTC6 insulinoma cell [4]; βTC6 cells challenged with hydrogen peroxide) was “potent anti-oxidant activity”, the “protection” value (βTC6 insulinoma cell [4]; βTC6 insulinoma cells) was “Mild Protection” and the Cell viability (3T3-L1 cells [5]; 10 pM) was 99.50 ± 1.50. For the same compound, the Cell viability (3T3-L1 cells [5]; 100 pM) was 99.99 ± 2.80, the Cell viability (3T3-L1 cells [5]; 1 nM) was 99.88 ± 0.91 and the Cell viability (3T3-L1 cells [5]; 10 nM) was 98.25 ± 1.20. It also gave a Cell viability (3T3-L1 cells [5]; 100 nM) of 97.69 ± 1.09, a Cell viability (3T3-L1 cells [5]; 1 μM) of 90.68 ± 2.05 and a Cell viability (3T3-L1 cells [5]; 10 μM) of 75.12 ± 2.85. For the same compound, the Cell viability (3T3-L1 cells [5]; 100 μM) was 62.54 ± 4.20, the “toxicity to the cell” value (3T3-L1 cells [5]; 3T3-L1 cells, 1 μM) was “non-toxic” and the “Anti-diabetic activity (glucose consumption)” value (“Anti-diabetic activity” for short) (L6-myotubes; 1 nM) was 1.38 ± 0.08. The “Anti-diabetic activity” value (L6-myotubes; 5 nM) was 1.78 ± 0.08, the “Anti-diabetic activity” value (L6-myotubes; 25 nM) was 1.98 ± 0.08 and the “Anti-diabetic activity” value (L6-myotubes; 125 nM) was 2.30 ± 0.08. For the same compound, the “Anti-diabetic activity” value (L6-myotubes; 625 nM) was 2.50 ± 0.10 and the “glucose consumption” value (L6-myotubes; differentiated L6-myotubes, dose dependent) was “accelerated glucose consumption”.

In the case of CN(C)C(=N)N=C(N)N [Metformin], the Aldose reductase (Aldose reductase) is reported as 2.60 ± 0.75 μM of NADPH oxidized/g of protein.
